Laboratory results: the NIST ThermoML archive (doi:10.1016/j.jct.2016.11.002)
Values joined by “and” are separate entries in the source; they are usually repeats but may differ in a detail not shown here. Equal values may be shown once. ± gives the expanded uncertainty stated by the source.

Tests used:
[1] = 100 kPa, Liquid; for speed of sound: Frequency=3 MHz, Single path-length method; for mass density: Vibrating tube method
[2] = refractive index (Na D-line) (dimensionless); conditions: 100 kPa, Liquid, Standard Abbe refractometry
[3] = xn = mol fraction of the nth substance listed; conditions: 100 kPa, Liquid, x1 = 1; for speed of sound: Frequency=3 MHz, Single path-length method; for mass density: Vibrating tube method
[4] = refractive index (Na D-line) (dimensionless); xn = mol fraction of the nth substance listed; conditions: 100 kPa, Liquid, Standard Abbe refractometry, x1 = 1

Row | Compound | speed of sound ([1]; 298.15 K) [m/s] | mass density ([1]; 298.15 K) [kg/m3] | speed of sound ([3]; 298.15 K) [m/s] | mass density ([3]; 298.15 K) [kg/m3] | speed of sound ([3]; 303.15 K) [m/s] | mass density ([3]; 303.15 K) [kg/m3] | speed of sound ([3]; 308.15 K) [m/s] | mass density ([3]; 308.15 K) [kg/m3] | speed of sound ([3]; 313.15 K) [m/s] | mass density ([3]; 313.15 K) [kg/m3] | speed of sound ([3]; 318.15 K) [m/s] | mass density ([3]; 318.15 K) [kg/m3] | speed of sound ([3]; 323.15 K) [m/s] | mass density ([3]; 323.15 K) [kg/m3] | refractive index ([4]; 298.15 K) | refractive index ([4]; 303.15 K) | refractive index ([4]; 308.15 K) | refractive index ([4]; 313.15 K) | refractive index ([4]; 318.15 K) | refractive index ([4]; 323.15 K) | also measured
1 | CCOCCO [2-ethoxyethan-1-ol] | 1302.8 ± 1.3 | 925.54 ± 1 | – | – | – | – | – | – | – | – | – | – | – | – | – | – | – | – | – | – | speed of sound ([1]; 303.15 K): 1285 ± 1.3 m/s; mass density ([1]; 303.15 K): 920.99 ± 1 kg/m3; speed of sound ([1]; 308.15 K): 1267.3 ± 1.3 m/s; mass density ([1]; 308.15 K): 916.41 ± 1 kg/m3; speed of sound ([1]; 313.15 K): 1249.6 ± 1.3 m/s; mass density ([1]; 313.15 K): 911.8 ± 1 kg/m3; speed of sound ([1]; 318.15 K): 1232 ± 1.3 m/s and 1231.5 ± 1.3 m/s; mass density ([1]; 318.15 K): 907.15 ± 1 kg/m3; speed of sound ([1]; 323.15 K): 1214.3 ± 1.3 m/s; mass density ([1]; 323.15 K): 902.46 ± 1 kg/m3; refractive index ([2]; 298.15 K): 1.4055 ± 0.0016; refractive index ([2]; 303.15 K): 1.4042 ± 0.0016; refractive index ([2]; 308.15 K): 1.4028 ± 0.0016; refractive index ([2]; 313.15 K): 1.4016 ± 0.0016; refractive index ([2]; 318.15 K): 1.4001 ± 0.0016; refractive index ([2]; 323.15 K): 1.3988 ± 0.0016
2 | COCCO [2-methoxyethan-1-ol] | 1342.1 ± 1.3 | 960.32 ± 1 | – | – | – | – | – | – | – | – | – | – | – | – | – | – | – | – | – | – | speed of sound ([1]; 303.15 K): 1324.7 ± 1.3 m/s; mass density ([1]; 303.15 K): 955.71 ± 1 kg/m3; speed of sound ([1]; 308.15 K): 1307.4 ± 1.3 m/s; mass density ([1]; 308.15 K): 951.08 ± 1 kg/m3; speed of sound ([1]; 313.15 K): 1290 ± 1.3 m/s; mass density ([1]; 313.15 K): 946.42 ± 1 kg/m3; speed of sound ([1]; 318.15 K): 1272.7 ± 1.3 m/s; mass density ([1]; 318.15 K): 941.72 ± 1 kg/m3; speed of sound ([1]; 323.15 K): 1255.4 ± 1.3 m/s; mass density ([1]; 323.15 K): 936.89 ± 1 kg/m3; refractive index ([2]; 298.15 K): 1.4001 ± 0.0016; refractive index ([2]; 303.15 K): 1.3981 ± 0.0016; refractive index ([2]; 308.15 K): 1.3961 ± 0.0016; refractive index ([2]; 313.15 K): 1.3943 ± 0.0016; refractive index ([2]; 318.15 K): 1.3922 ± 0.0016; refractive index ([2]; 323.15 K): 1.3902 ± 0.0016
3 | CCOC(=O)OCC [diethyl carbonate] + CCCOCCO | – | – | 1177.5 ± 1.4 | 969.1 ± 1 | 1156.9 ± 1.4 | 963.47 ± 1 | 1136.6 ± 1.4 | 957.81 ± 1 | 1116.5 ± 1.4 | 952.13 ± 1 | 1096.5 ± 1.4 | 946.43 ± 1 | 1076.7 ± 1.4 | 940.69 ± 1 | 1.3825 ± 0.0016 | 1.3802 ± 0.0016 | 1.3779 ± 0.0016 | 1.3756 ± 0.0016 | 1.3733 ± 0.0016 | 1.371 ± 0.0016 | –
4 | CCOC(=O)OCC [diethyl carbonate] + CCOCCO | – | – | 1177.5 ± 1.4 | 969.1 ± 1 | 1156.9 ± 1.4 | 963.47 ± 1 | 1136.6 ± 1.4 | 957.81 ± 1 | 1116.5 ± 1.4 | 952.13 ± 1 | 1096.5 ± 1.4 | 946.43 ± 1 | 1076.7 ± 1.4 | 940.69 ± 1 | 1.3825 ± 0.0016 | 1.3802 ± 0.0016 | 1.3779 ± 0.0016 | 1.3756 ± 0.0016 | 1.3733 ± 0.0016 | 1.371 ± 0.0016 | –
5 | CCOC(=O)OCC [diethyl carbonate] + COCCO | – | – | 1177.5 ± 1.4 | 969.1 ± 1 | 1156.9 ± 1.4 | 963.47 ± 1 | 1136.6 ± 1.4 | 957.81 ± 1 | 1116.5 ± 1.4 | 952.13 ± 1 | 1096.5 ± 1.4 | 946.43 ± 1 | 1076.7 ± 1.4 | 940.69 ± 1 | 1.3825 ± 0.0016 | 1.3802 ± 0.0016 | 1.3779 ± 0.0016 | 1.3756 ± 0.0016 | 1.3733 ± 0.0016 | 1.371 ± 0.0016 | –
